Test results as given in patent US9085559B2, “Triazine-aryl-bis-indoles and process for preparation thereof” (COUNCIL OF SCIENTIFIC & INDUSTRIAL RESEARCH, priority 2010, dated 2015).
≈ marks a conversion by molar mass, not a printed value.

Key:
[1] = tested on: airway hyperresponsiveness (AHR) in mouse model of asthma; experiment: Airway hyperresponsiveness to methacholine in OVA sensitized and challenged mouse model of asthma; assay type: in vivo, BALB/c mice
Experimental: The above protocols described in the present invention can be utilized similarly for the synthesis of numerous analogues of ‘triazine-aryl-bis-indole’ class of novel compounds represented by Formula I. • Scheme V • With reference to FIG. 9, mice were sensitized with ovalbumin (OVA) intraperitonially (i.p.) on days 0, 7 and 14 as shown in scheme V. Sham group mice were sensitized with only alum dissolved in PBS. From day 21 to 30, mice were exposed to aerosol of OVA (3%) inhalation 25 minutes daily in a Plexiglas chamber (20×20×10 cm^3). […]
Airway responsiveness was measured by barometric plethysmography using whole-body plethysmography (WBP; Buxco, Troy, N.Y.) 12 hours after last saline or ovalbumin challenge. […] Enhanced pause (Penh) to methacholine as measured using barometric plethysmography is a valid indicator of bronchoconstriction in mice and can be used to measure AHR.
FIG. 3. […] AHR was measured after allergen challenge with increasing concentrations of methacholine and MChPC200 was calculated. […]
Airway responsiveness was measured by barometric plethysmography using whole-body plethysmography (WBP; Buxco, Troy, N.Y.) 12 hours after last saline or ovalbumin challenge. […]

[2] = tested on: PDE-4; experiment: Phosphodiesterase 4 assay ([3H]cAMP SPA), enzyme preparation from rat heart; assay type: biochemical; conditions: 0.1-20 μg/ml, compared with rolipram (FIG. 2)
[3] = tested on: Intercellular Adhesion Molecule type 1 (ICAM-1); experiment: Cell-ELISA, TNF-α induced ICAM-1 expression on HUVECs; assay type: cell-based; conditions: Homo sapiens, HUVEC; HUVECs pretreated 2 hours, TNF-α 16 hours
Experimental: FIG. 4. Inhibition of TNF-α induced expression Intercellular Adhesion Molecule type 1 (ICAM-1) and Vascular Cell Adhesion Molecule type 1 (VCAM-1) on HUVECs by IICT-TA67. To determine the effect of IICT-TA67 on TNF-α induced cell adhesion molecules such as ICAM-1 and VCAM-1, HUVECs were pretreated with various concentrations of IICT-TA67 for 2 hours followed by induction with TNF-α for 16 hours. The cell surface expression of cell adhesion molecules was measured by ELISA.
Cell-ELISA was used for measuring the expression of ICAM-1 on surface of endothelial cells. Endothelial cells were incubated with or without IICT-TA67 at desired concentrations for the required period, followed by treatment with TNF-α (10 ng/ml) for 16 h for ICAM-1 and VCAM-1 expression. The cells were fixed with 1.0% glutaraldehyde. Non-specific binding of antibody was blocked by using skimmed milk (3.0% in PBS). Cells were incubated overnight at 4° C. with anti-ICAM-1 mAb anti-VCAM-1 antibody, diluted in blocking buffer, the cells were further washed with PBS and incubated with peroxidase-conjugated goat anti-mouse secondary Abs. […] Reaction was stopped by the addition of 2 N sulfuric acid and absorbance at 490 nm was measured using microplate reader (Spectramax 190, Molecular Devices, USA).

COc1ccc(C(c2[nH]c3ccccc3c2CC(=O)O)c2[nH]c3ccccc3c2CC(=O)O)cc1Oc1nc(NC2CC2)nc(NC2CC2)n1 [Compound 7, 2,2′-[2,2′-3-(4,6-bis-cyclopropylamino)-1,3,5-triazin-2-yl-oxy-4-methoxy-phenyl]-methylene-bis-(1H-indole-3,3-diyl)-diacetic acid]
MChPC200 ([1]; OVA/OVA mice, 0.1, 1 and 10 mg/kg orally twice per day, versus OVA/OVA/VEH): significantly attenuated the decrease in MChPC200 | dose of maximum effect on MChPC200 ([1]; OVA/OVA mice, orally twice per day): 0.1 mg/kg | inhibition of PDE4 activity [2]: inhibited PDE4 activity in a dose dependent manner | IC50 [3]: 10.6 µg/mL (≈ 15.7 µM)
